Data as given in patent EP4238973A1, “SUBSTITUTED 1,2,4-THIADIAZOLYL ISONICOTINAMIDES, SALTS OR N-OXIDES THEREOF AND THEIR USE AS HERBICIDALLY ACTIVE SUBSTANCES” (Bayer AG, priority 2022, dated 2023).

Columns and labels:
Format in all cases: in vivo
[1] = test system: Amaranthus retroflexus; test: Herbicidal post-emergence action; details: 1280 g/ha, visual assessment after ca. 3 weeks vs untreated controls
Source text: (§1) Seeds of mono- and dicotyledonous weed plants were sown in plastic pots (double sowings with one species of mono- and one species of dicotyledonous weed plants per pot), in sandy loam, covered with soil and grown under controlled growth conditions. 2 to 3 weeks after sowing, the test plants were sprayed in the single-leaf stage. The compounds according to the invention, formulated in the form of wettable powders (WP) or as emulsifiable concentrates (EC), were sprayed onto the green plant parts as an aqueous suspension or as an emulsion, with the addition of 0.5% of an additive, at an application rate of 600 litres of water per hectare (converted). The test plants were placed in the greenhouse for ca. 3 weeks under optimum growth conditions, and then the effect of the preparations is assessed visually in comparison with untreated controls (herbicidal effect in percent (%): 100% effect = plants have died, 0% effect = as control plants).
as §1, with “(EC), are” for “(EC), were”, “controls (herbicidaleffectinpercent(%):100%effect=plantshavedied,0%effect=ascontrolplants). [formula]” for “controls (herbicidal effect in percent (%): 100% effect = plants have died, 0% effect = as control plants).”

[2] = test system: Poa annua; test: Herbicidal post-emergence action; details: visual assessment after ca. 3 weeks vs untreated controls
Source text: as §1
as §1, with “(EC), are” for “(EC), were”, “controls (herbicidaleffectinpercent(%):100%effect=plantshavedied,0%effect=ascontrolplants). [formula]” for “controls (herbicidal effect in percent (%): 100% effect = plants have died, 0% effect = as control plants).”

[3] = test system: Matricaria inodora; test: Herbicidal post-emergence action; details: visual assessment after ca. 3 weeks vs untreated controls
Source text: as §1
as §1, with “(EC), are” for “(EC), were”, “controls (herbicidaleffectinpercent(%):100%effect=plantshavedied,0%effect=ascontrolplants). [formula]” for “controls (herbicidal effect in percent (%): 100% effect = plants have died, 0% effect = as control plants).”

[4] = test system: Stellaria media; test: Herbicidal post-emergence action; details: visual assessment after ca. 3 weeks vs untreated controls
Source text: as §1
as §1, with “(EC), are” for “(EC), were”, “controls (herbicidaleffectinpercent(%):100%effect=plantshavedied,0%effect=ascontrolplants). [formula]” for “controls (herbicidal effect in percent (%): 100% effect = plants have died, 0% effect = as control plants).”

[5] = test system: Veronica persica; test: Herbicidal post-emergence action; details: visual assessment after ca. 3 weeks vs untreated controls
Source text: as §1
as §1, with “(EC), are” for “(EC), were”, “controls (herbicidaleffectinpercent(%):100%effect=plantshavedied,0%effect=ascontrolplants). [formula]” for “controls (herbicidal effect in percent (%): 100% effect = plants have died, 0% effect = as control plants).”

[6] = test system: Setaria viridis; test: Herbicidal post-emergence action; details: visual assessment after ca. 3 weeks vs untreated controls
Source text: as §1
as §1, with “(EC), are” for “(EC), were”, “controls (herbicidaleffectinpercent(%):100%effect=plantshavedied,0%effect=ascontrolplants). [formula]” for “controls (herbicidal effect in percent (%): 100% effect = plants have died, 0% effect = as control plants).”

[7] = test system: Alopecurus myosuroides; test: Herbicidal post-emergence action; details: 1280 g/ha, visual assessment after ca. 3 weeks vs untreated controls
Source text: as §1
as §1, with “(EC), are” for “(EC), were”, “controls (herbicidaleffectinpercent(%):100%effect=plantshavedied,0%effect=ascontrolplants). [formula]” for “controls (herbicidal effect in percent (%): 100% effect = plants have died, 0% effect = as control plants).”

[8] = test system: Kochia scoparia; test: Herbicidal post-emergence action; details: visual assessment after ca. 3 weeks vs untreated controls
Source text: as §1
as §1, with “(EC), are” for “(EC), were”, “controls (herbicidaleffectinpercent(%):100%effect=plantshavedied,0%effect=ascontrolplants). [formula]” for “controls (herbicidal effect in percent (%): 100% effect = plants have died, 0% effect = as control plants).”

[9] = test system: Poa annua; test: Herbicidal pre-emergence action; details: visual grading after ca. 3 weeks vs untreated controls
Source text: (§2) Seeds of mono- and dicotyledonous weed plants were sown in plastic pots (double sowings with one species of mono- and one species of dicotyledonous weed plants per pot), in sandy loam, and covered with soil. The compounds according to the invention, formulated in the form of wettable powders (WP) or as emulsifiable concentrates (EC), were applied to the surface of the covering soil as an aqueous suspension or as an emulsion, with the addition of 0.5% of an additive, at an application rate of 600 litres of water per hectare (converted). Following treatment, the pots were placed in a greenhouse and kept under optimum growth conditions for the test plants. The visual grading of the damage to the test plants is carried out after ca. 3 weeks in comparison to untreated controls (herbicidal effect in percent (%): 100% effect = plants have died, 0% effect = as control plants). Seeds of mono- and dicotyledonous weed plants were sown in plastic pots (double sowings with one species of mono- and one species of dicotyledonous weed plants per pot), in sandy loam, and covered with soil. The compounds according to the invention, formulated in the form of wettable powders (WP) or as emulsifiable concentrates (EC), were applied to the surface of the covering soil as an aqueous suspension or as an emulsion, with the addition of 0.5% of an additive, at an application rate of 600 litres of water per hectare (converted). Following treatment, the pots were placed in a greenhouse and kept under optimum growth conditions for the test plants. The visual grading of the damage to the test plants is carried out after ca. 3 weeks in comparison to untreated controls (herbicidal effect in percent (%): 100% effect = plants have died, 0% effect = as control plants).

[10] = test system: Matricaria inodora; test: Herbicidal pre-emergence action; details: 1280 g/ha, visual grading after ca. 3 weeks vs untreated controls
Source text: as §2

[11] = test system: Lolium rigidum; test: Herbicidal pre-emergence action; details: visual grading after ca. 3 weeks vs untreated controls
Source text: as §2

[12] = test system: Stellaria media; test: Herbicidal pre-emergence action; details: visual grading after ca. 3 weeks vs untreated controls
Source text: as §2

[13] = test system: Lolium rigidum; test: Herbicidal post-emergence action; details: visual assessment after ca. 3 weeks vs untreated controls
Source text: as §1
as §1, with “(EC), are” for “(EC), were”, “controls (herbicidaleffectinpercent(%):100%effect=plantshavedied,0%effect=ascontrolplants). [formula]” for “controls (herbicidal effect in percent (%): 100% effect = plants have died, 0% effect = as control plants).”

[14] = test system: Digitaria sanguinalis; test: Herbicidal post-emergence action; details: visual assessment after ca. 3 weeks vs untreated controls
Source text: as §1
as §1, with “(EC), are” for “(EC), were”, “controls (herbicidaleffectinpercent(%):100%effect=plantshavedied,0%effect=ascontrolplants). [formula]” for “controls (herbicidal effect in percent (%): 100% effect = plants have died, 0% effect = as control plants).”

[15] = test system: Amaranthus retroflexus; test: Herbicidal pre-emergence action; details: 1280 g/ha, visual grading after ca. 3 weeks vs untreated controls
Source text: as §2

[16] = test system: Digitaria sanguinalis; test: Herbicidal pre-emergence action; details: 1280 g/ha, visual grading after ca. 3 weeks vs untreated controls
Source text: as §2

[17] = test system: Veronica persica; test: Herbicidal pre-emergence action; details: 1280 g/ha, visual grading after ca. 3 weeks vs untreated controls
Source text: as §2

[18] = test system: Setaria viridis; test: Herbicidal pre-emergence action; details: 1280 g/ha, visual grading after ca. 3 weeks vs untreated controls
Source text: as §2

[19] = test system: Kochia scoparia; test: Herbicidal pre-emergence action; details: 1280 g/ha, visual grading after ca. 3 weeks vs untreated controls
Source text: as §2

[20] = test system: Abutilon theophrasti; test: Herbicidal pre-emergence action; details: 1280 g/ha, visual grading after ca. 3 weeks vs untreated controls
Source text: as §2

[21] = test system: Echinochloa crus-galli; test: Herbicidal pre-emergence action; details: 1280 g/ha, visual grading after ca. 3 weeks vs untreated controls
Source text: as §2

[22] = test system: Alopecurus myosuroides; test: Herbicidal pre-emergence action; details: 1280 g/ha, visual grading after ca. 3 weeks vs untreated controls
Source text: as §2

Structure (SMILES)	herbicidal effect in percent (%), AMARE [1]	herbicidal effect in percent (%), POAAN ([2]; 1280 g/ha)	herbicidal effect in percent (%), MATIN ([3]; 320 g/ha)	herbicidal effect in percent (%), MATIN ([3]; 1280 g/ha)	herbicidal effect in percent (%), STEME ([4]; 1280 g/ha)	herbicidal effect in percent (%), VERPE ([5]; 1280 g/ha)	herbicidal effect in percent (%), SETVI ([6]; 1280 g/ha)	herbicidal effect in percent (%), ALOMY [7]	herbicidal effect in percent (%), KCHSC ([8]; 1280 g/ha)	herbicidal effect in percent (%), POAAN ([9]; 320 g/ha)	herbicidal effect in percent (%), POAAN ([9]; 1280 g/ha)	herbicidal effect in percent (%), MATIN [10]	herbicidal effect in percent (%), LOLRI ([11]; 320 g/ha)	herbicidal effect in percent (%), LOLRI ([11]; 1280 g/ha)	herbicidal effect in percent (%), STEME ([12]; 1280 g/ha)	herbicidal effect in percent (%), POAAN ([2]; 320 g/ha)	herbicidal effect in percent (%), LOLRI ([13]; 1280 g/ha)	herbicidal effect in percent (%), STEME ([4]; 320 g/ha)	herbicidal effect in percent (%), VERPE ([5]; 320 g/ha)	herbicidal effect in percent (%), AMARE [15]	also measured
O=C(Nc1ncns1)c1cc(F)ncc1Br [Example I-027, 5-bromo-2-fluoro-N-(1,2,4-thiadiazol-5-yl)pyridine-4-carboxamide]	90%	90%	90%	90%	90%	90%	90%	90%	90%	90%	90%	90%	90%	100%	100%	–	–	–	–	–	–
O=C(Nc1ncns1)c1ccncc1I [Example 1-004]	100%	100%	–	100%	100%	100%	90%	100%	90%	90%	90%	90%	–	100%	90%	100%	100%	100%	100%	90%	herbicidal effect in percent (%), DIGSA ([14]; 320 g/ha): 90%; herbicidal effect in percent (%), DIGSA ([14]; 1280 g/ha): 100%; herbicidal effect in percent (%), SETVI ([6]; 320 g/ha): 90%; herbicidal effect in percent (%), DIGSA [16]: 90%; herbicidal effect in percent (%), STEME ([12]; 320 g/ha): 90%; herbicidal effect in percent (%), VERPE [17]: 90%; herbicidal effect in percent (%), SETVI [18]: 90%; herbicidal effect in percent (%), KCHSC [19]: 90%
O=C(Nc1nc(Cl)ns1)c1ccncc1I [Example 1-023, N-(3-chloro-1,2,4-thiadiazol-5-yl)-3-iodo-pyridine-4-carboxamide]	90%	90%	–	100%	90%	–	–	–	90%	–	–	100%	–	90%	100%	–	–	–	–	100%	–
O=C(Nc1ncns1)c1cc(Cl)ncc1C(F)(F)F [Example I-013, 2-chloro-N-(1,2,4-thiadiazol-5-yl)-5-(trifluoromethyl)pyridine-4-carboxamide]	100%	100%	100%	100%	100%	100%	–	90%	100%	–	90%	100%	90%	100%	100%	100%	100%	100%	100%	100%	herbicidal effect in percent (%), LOLRI ([13]; 320 g/ha): 90%; herbicidal effect in percent (%), KCHSC ([8]; 320 g/ha): 100%; herbicidal effect in percent (%), ABUTH [20]: 90%; herbicidal effect in percent (%), ECHCG [21]: 100%; herbicidal effect in percent (%), VERPE [17]: 100%; herbicidal effect in percent (%), ALOMY [22]: 90%; herbicidal effect in percent (%), KCHSC [19]: 100%
